In US10281476B2, “Methods to identify modulators of RyR calcium channels” (REGENTS OF THE UNIVERSITY OF MINNESOTA, priority 2013, dated 2019):
Where no end group is shown, it is not given here.

Tests used:
[1] = test system: RyR2; assay: RyR2 free thiol content by monobromobimane (mBB) fluorescence; format: cell-based, rat; details: 50 μmol/L H2O2, with or without dantrolene pretreatment
Method: Intracellular reactive oxygen species (ROS) formation was measured in rat cardiac myocytes using a fluorescent probe, 5-(and -6)-chloromethyl-2′,7′-dichlorodihydrofluoroscein diacetate (H2DCFDA, 10 μmol/L) (Terentyev et al., Circ Res. 2008; 103:1466-1472). This assay is widely used as a reliable method for the measurement of intracellular ROS such as hydrogen peroxide, hydroxyl radicals, and hydroperoxide. The H2DCFDA dye was excited with the 488 nm and emission was collected at 500-530 nm. The content of free thiols in RyR2 was determined based on the monobromobimane (mBB, Calbiochem) fluorescence intensity, as previously described (Terentyev et al., Circ Res. 2008; 103:1466-1472; Ho et al., J Physiol. 2011; 19:4697-4708). In brief, myocytes were incubated with mBB for 1 hr. Myocytes were then lysed in lysis buffer and loaded on 6% SDS-PAGE gels. The fluorescence emission intensity of the RyR2-bound mBB was measured at 482 nm by exciting at 382 nm. mBB fluorescence was normalized to the RyR2 amount, which was determined using quantitative densitometry of Coomassie Blue-stained gels.
To monitor intracellular ROS level, we used H2DCFDA (10 μmol/L). […] To assess whether dantrolene can attenuate the extent of RyR2 thiol modification in H2O2-treated myocytes, we used a monobromobimane (mBB) fluorescence labeling assay.

[2] = biological target: RyR2 (Rattus norvegicus, UniProt B0LPN4); assay: F-DPc10 wash-in and washout kinetics at the myocyte Z-line; format: binding; set-up: endogenous in cells; host or cells: saponin-permeabilized adult rat ventricular myocytes; details: for effect on HF647-DPc10 wash-out kinetics: dantrolene 1 μmol/L, NF-DPc10 5 μmol/L
RyR2 (Rattus norvegicus, UniProt B0LPN4), sequence (B0LPN4 whole entry): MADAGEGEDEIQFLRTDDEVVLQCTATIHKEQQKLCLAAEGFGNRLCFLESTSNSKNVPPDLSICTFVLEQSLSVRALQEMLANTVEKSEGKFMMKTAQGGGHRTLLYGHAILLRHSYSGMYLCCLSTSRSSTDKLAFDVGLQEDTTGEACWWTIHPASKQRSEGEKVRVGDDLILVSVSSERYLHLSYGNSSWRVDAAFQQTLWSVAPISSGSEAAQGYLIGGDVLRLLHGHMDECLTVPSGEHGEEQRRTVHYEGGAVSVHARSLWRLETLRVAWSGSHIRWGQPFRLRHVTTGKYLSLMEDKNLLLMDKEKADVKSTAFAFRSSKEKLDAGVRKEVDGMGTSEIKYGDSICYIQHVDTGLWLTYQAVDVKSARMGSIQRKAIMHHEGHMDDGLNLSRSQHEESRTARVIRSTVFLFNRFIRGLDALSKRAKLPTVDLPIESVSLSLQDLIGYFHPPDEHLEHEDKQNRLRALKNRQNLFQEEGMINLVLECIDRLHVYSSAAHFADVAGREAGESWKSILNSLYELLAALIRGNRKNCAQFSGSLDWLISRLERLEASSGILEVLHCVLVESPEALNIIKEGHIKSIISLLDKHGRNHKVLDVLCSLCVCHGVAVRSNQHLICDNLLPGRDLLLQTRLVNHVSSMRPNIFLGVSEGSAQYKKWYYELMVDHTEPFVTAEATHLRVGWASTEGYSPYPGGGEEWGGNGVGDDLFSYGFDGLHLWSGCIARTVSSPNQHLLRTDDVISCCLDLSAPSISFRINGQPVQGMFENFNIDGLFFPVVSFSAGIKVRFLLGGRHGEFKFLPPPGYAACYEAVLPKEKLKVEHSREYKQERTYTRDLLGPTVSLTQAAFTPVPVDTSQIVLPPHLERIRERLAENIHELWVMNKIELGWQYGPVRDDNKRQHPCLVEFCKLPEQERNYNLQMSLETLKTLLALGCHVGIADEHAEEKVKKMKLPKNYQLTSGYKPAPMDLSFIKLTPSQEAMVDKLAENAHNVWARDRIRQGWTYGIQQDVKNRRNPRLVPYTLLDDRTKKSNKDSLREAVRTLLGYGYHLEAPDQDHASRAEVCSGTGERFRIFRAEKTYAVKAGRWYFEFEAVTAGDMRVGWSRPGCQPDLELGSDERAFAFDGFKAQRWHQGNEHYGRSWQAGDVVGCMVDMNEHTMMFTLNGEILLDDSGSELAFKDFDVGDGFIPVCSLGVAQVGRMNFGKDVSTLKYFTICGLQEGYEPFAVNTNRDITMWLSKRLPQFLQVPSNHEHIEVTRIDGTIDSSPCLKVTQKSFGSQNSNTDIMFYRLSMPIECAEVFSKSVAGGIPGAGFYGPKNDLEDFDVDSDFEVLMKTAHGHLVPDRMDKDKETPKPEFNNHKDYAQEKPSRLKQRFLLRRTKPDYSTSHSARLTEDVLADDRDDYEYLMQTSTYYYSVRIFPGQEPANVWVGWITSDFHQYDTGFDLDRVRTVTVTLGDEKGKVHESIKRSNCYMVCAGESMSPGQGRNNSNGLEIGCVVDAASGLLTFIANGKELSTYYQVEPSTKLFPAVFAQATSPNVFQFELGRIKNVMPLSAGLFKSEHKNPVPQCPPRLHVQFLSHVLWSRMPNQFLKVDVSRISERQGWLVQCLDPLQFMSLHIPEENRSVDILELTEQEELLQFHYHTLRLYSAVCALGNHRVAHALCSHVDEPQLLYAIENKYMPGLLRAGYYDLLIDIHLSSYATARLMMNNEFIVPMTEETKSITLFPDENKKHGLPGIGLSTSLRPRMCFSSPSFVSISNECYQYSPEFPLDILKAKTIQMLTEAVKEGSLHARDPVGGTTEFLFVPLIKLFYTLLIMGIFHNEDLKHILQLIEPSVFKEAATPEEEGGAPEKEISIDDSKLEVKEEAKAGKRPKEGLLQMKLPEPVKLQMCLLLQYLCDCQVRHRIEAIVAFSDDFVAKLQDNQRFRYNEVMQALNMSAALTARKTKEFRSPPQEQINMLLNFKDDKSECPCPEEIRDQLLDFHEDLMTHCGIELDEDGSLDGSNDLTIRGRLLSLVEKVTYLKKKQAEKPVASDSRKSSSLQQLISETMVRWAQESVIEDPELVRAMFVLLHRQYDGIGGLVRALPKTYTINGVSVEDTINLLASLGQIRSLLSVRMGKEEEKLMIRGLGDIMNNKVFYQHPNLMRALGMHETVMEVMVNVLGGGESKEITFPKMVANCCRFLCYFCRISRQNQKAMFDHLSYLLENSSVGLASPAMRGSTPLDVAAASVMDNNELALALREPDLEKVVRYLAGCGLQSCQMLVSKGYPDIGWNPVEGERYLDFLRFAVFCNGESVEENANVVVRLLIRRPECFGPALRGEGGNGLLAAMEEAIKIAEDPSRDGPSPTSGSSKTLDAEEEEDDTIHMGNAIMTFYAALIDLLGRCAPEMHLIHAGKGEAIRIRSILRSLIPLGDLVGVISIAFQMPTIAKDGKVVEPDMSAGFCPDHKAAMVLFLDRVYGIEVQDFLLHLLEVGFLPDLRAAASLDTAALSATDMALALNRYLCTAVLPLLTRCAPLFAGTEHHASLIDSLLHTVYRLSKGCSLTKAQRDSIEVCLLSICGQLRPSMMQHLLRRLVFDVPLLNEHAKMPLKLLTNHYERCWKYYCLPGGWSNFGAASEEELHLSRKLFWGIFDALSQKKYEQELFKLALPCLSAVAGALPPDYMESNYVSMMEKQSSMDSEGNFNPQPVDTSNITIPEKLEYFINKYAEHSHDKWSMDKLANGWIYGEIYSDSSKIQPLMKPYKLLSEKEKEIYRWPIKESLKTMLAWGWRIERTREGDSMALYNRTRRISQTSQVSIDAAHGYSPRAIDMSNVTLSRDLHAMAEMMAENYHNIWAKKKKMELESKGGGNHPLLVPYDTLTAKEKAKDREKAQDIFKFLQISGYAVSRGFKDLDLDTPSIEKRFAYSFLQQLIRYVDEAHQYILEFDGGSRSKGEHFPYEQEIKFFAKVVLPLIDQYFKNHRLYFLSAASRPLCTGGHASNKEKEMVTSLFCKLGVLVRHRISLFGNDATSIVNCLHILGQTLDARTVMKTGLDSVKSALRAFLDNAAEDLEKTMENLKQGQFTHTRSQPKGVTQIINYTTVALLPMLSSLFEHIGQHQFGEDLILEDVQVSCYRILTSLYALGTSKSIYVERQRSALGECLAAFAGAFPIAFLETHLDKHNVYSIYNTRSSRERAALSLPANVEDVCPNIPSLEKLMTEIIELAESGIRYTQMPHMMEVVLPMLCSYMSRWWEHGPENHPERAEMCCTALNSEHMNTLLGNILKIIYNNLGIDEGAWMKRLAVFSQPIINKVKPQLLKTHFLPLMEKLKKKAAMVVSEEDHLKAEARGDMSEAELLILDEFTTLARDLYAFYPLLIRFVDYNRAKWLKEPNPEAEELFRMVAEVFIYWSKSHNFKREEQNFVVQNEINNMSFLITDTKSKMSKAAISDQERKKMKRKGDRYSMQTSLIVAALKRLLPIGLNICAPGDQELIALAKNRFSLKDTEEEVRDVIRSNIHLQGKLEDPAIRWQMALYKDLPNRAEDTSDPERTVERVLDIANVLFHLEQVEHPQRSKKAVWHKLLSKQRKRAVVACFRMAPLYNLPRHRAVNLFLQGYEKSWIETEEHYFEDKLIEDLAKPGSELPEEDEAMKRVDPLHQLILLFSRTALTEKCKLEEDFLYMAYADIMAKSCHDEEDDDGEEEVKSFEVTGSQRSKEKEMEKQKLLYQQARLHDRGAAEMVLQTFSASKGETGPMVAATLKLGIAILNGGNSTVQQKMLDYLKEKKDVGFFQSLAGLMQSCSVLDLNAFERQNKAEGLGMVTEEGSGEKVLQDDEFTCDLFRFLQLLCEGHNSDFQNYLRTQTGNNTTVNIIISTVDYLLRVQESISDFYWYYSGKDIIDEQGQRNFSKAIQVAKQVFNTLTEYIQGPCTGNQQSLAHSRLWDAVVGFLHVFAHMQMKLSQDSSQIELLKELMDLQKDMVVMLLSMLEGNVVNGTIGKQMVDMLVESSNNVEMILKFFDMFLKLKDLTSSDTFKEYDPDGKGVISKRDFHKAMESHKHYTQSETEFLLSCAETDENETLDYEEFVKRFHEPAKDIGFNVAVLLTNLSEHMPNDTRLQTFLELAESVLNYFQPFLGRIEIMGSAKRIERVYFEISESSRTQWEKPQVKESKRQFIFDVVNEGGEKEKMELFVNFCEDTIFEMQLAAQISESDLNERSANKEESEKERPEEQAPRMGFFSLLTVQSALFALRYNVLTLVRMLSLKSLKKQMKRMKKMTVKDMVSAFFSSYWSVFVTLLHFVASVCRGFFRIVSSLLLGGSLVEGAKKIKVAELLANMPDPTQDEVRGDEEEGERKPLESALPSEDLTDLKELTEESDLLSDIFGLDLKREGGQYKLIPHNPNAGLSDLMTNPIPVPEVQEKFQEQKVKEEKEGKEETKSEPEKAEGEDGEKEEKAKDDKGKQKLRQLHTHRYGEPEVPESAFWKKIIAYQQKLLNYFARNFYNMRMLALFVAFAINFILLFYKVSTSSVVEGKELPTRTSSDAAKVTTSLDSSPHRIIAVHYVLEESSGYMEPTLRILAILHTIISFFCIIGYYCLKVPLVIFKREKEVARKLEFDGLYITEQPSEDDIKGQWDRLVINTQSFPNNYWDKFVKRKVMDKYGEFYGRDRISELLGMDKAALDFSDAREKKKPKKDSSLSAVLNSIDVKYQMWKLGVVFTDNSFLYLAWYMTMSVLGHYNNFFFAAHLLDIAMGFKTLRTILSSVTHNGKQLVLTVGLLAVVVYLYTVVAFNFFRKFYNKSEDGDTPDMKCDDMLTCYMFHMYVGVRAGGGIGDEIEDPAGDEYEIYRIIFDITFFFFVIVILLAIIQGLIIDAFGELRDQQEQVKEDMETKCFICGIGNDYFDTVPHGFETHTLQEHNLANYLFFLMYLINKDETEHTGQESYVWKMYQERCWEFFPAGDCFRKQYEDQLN
Method: To characterize DPc10-binding kinetics at Z-lines, we performed F-DPc10 wash-in (500 nmol/L) and washout experiments in permeabilized myocytes (FIG. 10A). Association (τwash-in=79.0±3.2 minutes) and dissociation (τwashout=149.8±4.4 minutes) were very slow compared with similar FKBP12.6 measurements (Guo et al., Circ Res, 2010; 106:1743-1752). From the wash-in/washout measurements, we calculated the association and dissociation rates constants, kon and koff, respectively, according to the following equation: kwash-in=[F-DPc10]kon+koff where kwashout≈koff and k=1/τ (s^−1). Accordingly, kon=202±20 (L mol^−1 s^−1) and koff=0.11±0.01 (10^−3 s^−1). […] We repeated this kinetic analysis using FRET between FKBP12.6 and DPc10, thus assessing the RyR2-specific DPc10 binding (FIG. 11A AND 11B). […] Based on these kinetic and affinity analyses, we infer that most of the Z-line-specific DPc10 binding is to RyR2. This is also consistent with Bmax, which would imply ≈1 DPc10 per RyR2 monomer.
We were intrigued by the slow kwash-in and conducted measurements to further understand the basis of this slow association. We tested the hypothesis that at resting [Ca^2+]i, DPc10 access to its RyR2 binding site is sterically hindered. If the N-terminal and central domains are tightly zipped to each other, then this interaction may occlude the DPc10-binding site on the RyR2, thus limiting the kon for DPc10. Alternatively, a limiting factor may be the rate at which DPc10 adopts a conformation that can bind to RyR2. To discern between these mechanisms, we determined the effect of [F-DPc10] on τwash-in. If the small fraction of DPc10 in the right conformation limits binding rate, then τwash-in should be faster at higher [F-DPc10], according to Equation. […] Instead, a 10-fold increase in [F-DPc10] had no significant effect on the τwash-in, although it did increase Bmax (FIG. 10B). The same was seen when using FKBP12.6-DPc10 FRET to assess τwash-in with 0.5 vs 5 μmol/L HF647-DPc10 (FIG. 12A AND 12B).
In our working model, under resting conditions, the RyR2 closed state may be stabilized by the interaction between the N-terminal and central domain in the zipped state. We hypothesized that conditions that promote RyR2 opening might enhance the rate of unzipping and accelerate τwash-in for F-DPc10. To test this, we first monitored F-DPc10 wash-in at elevated Ca^2+ (500 nmol/L). However, the 13% faster mean τwash-in was not significant (FIG. 13A). […] Thus, we preincubated myocytes with ryanodine (100 μmol/L) plus caffeine ([…]), which are known to favor long RyR2 openings and were reported to cause RyR2 domain unzipping in HEK293 cells (Liu et al., J Cell Sci, 2010; 123: 1775-1784). Ryanodine+caffeine produced a 21% faster τwash-in (P=0.002; FIG. 13B). However, the most significant effect was seen after presaturating RyR2 with NF-DPc10 (and then NF-DPc10 washout with F-DPc10 present; FIG. 13A). […] Assuming that koff of NF-DPc10 is the same as for F-DPc10 and using Equation, the kon is increased by 3.2-fold by unzipping as a result of prebinding of NF-DPc10 to the RyR2. Our working hypothesis is that the RyR2 open state may increase the probability of an RyR2 shifting to the unzipped state and may allow faster F-DPc10 wash-in. It also seems that the RyR2 open state (favored by caffeine-ryanodine) differs from the unzipped state (bound with DPc10).
Both FKBP12.6 and CaM bind to the RyR2 and can reduce channel opening, which might alter DPc10 binding. […] Neither CaM nor FKBP12.6 pretreatment altered M-line F-DPc10 fluorescence (FIG. 15). […] We infer that CaM stabilizes the domain interaction between N-terminal and central domains in the zipped state and thereby may reduce DPc10 access to its binding site. To test for direct CaM-DPc10 interaction, we performed control FRET measurements between donor-labeled CaM and acceptor-labeled DPc10 in solution in the absence of RyR. The maximal FRET efficiency (<1%) ruled out direct CaM-DPc10 interaction. […]

Row | reduction of maximal HF647-DPc10 binding (Bmax) ([2]; 1 μmol/L dantrolene) | Molecule | content of free thiols on RyR2 / RyR2 oxidation level [1] | acceleration of F-DPc10 association, by a factor of ([2]; after presaturating RyR2 with NF-DPc10, then washout with F-DPc10 present) | effect on HF647-DPc10 wash-out kinetics [2] | increase of kon of F-DPc10 ([2]; prebinding of NF-DPc10 to RyR2) | increase in kon of F-DPc10 ([2]; pretreatment with NF-DPc10)
1 | – | OO [H2O2, hydrogen peroxide] | significantly decreased | – | – | – | –
2 | – | GFCPDHKAAMVLFLDRVYGIEVQDFLLHLLEVGFLP [DPc10] | – | ≈ 2 | accelerate | 3.2 fold | ≈ 320%
3 | 74% | O=C1CN(/N=C/c2ccc(-c3ccc([N+](=O)[O-])cc3)o2)C(O)=N1 [dantrolene] | did not attenuate | – | had no effect | – | –
